Source: ChEMBL document CHEMBL5150045, “Structure-Guided Design of Halofuginone Derivatives as ATP-Aided Inhibitors Against Bacterial Prolyl-tRNA Synthetase” (J Med Chem, 2022)
In brackets after ≈: the same amount, converted by molar mass.

Tests used:
[1] = Inhibition of methicillin-resistant Staphylococcus aureus ProRS expressed in Escherichia coli assessed as generation of inorganic monophosphate by pre-transfer editing-based experiment
Staphylococcus aureus [2] = assay: Inhibition of methicillin-resistant Staphylococcus aureus ProRS expressed in Escherichia coli assessed as change in melting temperature in presence of AMPPNP at 0.5 mM by fluorescence-based thermal shift assay
Homo sapiens = species on record: Homo sapiens; assay: Inhibition of human ProRS expressed in Escherichia coli assessed as change in melting temperature in presence of AMPPNP at 0.5 mM by fluorescence-based thermal shift assay
Escherichia coli [3] = assay: Antibacterial activity against Escherichia coli ATCC25922 assessed as prevention of visible growth by broth microdilution method; assay type: functional
Shigella flexneri = assay: Antibacterial activity against Shigella flexneri CMCC51572 assessed as prevention of visible growth by broth microdilution method; assay type: functional
Salmonella typhi = assay: Antibacterial activity against Salmonella typhi CMCC50094 assessed as prevention of visible growth by broth microdilution method; assay type: functional, Salmonella enterica subsp. enterica serovar Typhi; details: Salmonella enterica
Staphylococcus aureus [4] = assay: Antibacterial activity against methicillin-resistant Staphylococcus aureus 252 assessed as prevention of visible growth by broth microdilution method; assay type: functional
Staphylococcus aureus [5] = assay: Antibacterial activity against methicillin-resistant Staphylococcus aureus R3708 assessed as prevention of visible growth by broth microdilution method; assay type: functional
Staphylococcus aureus [6] = assay: Antibacterial activity against Staphylococcus aureus ATCC29213 assessed as prevention of visible growth by broth microdilution method; assay type: functional
Staphylococcus aureus [7] = assay: Antibacterial activity against Staphylococcus aureus ATCC25923 assessed as prevention of visible growth by broth microdilution method; assay type: functional
Staphylococcus aureus [8] = assay: Bactericidal activity against methicillin-resistant Staphylococcus aureus 252 assessed as bacterial killing measured after 24 hrs incubation by CLSI method; assay type: functional; details: read-out: MBC99.9
Staphylococcus aureus [9] = assay: Ratio of MBC99.9 for methicillin-resistant Staphylococcus aureus 252 to MIC for methicillin-resistant Staphylococcus aureus 252; assay type: functional
Escherichia coli [10] = assay: Resistance development in Escherichia coli ATCC25922 assessed as fold increase in resistance after 15 days serial passage upto 256 ug/ml; assay type: functional; details: dose <= 256 µg/ml; time 15 day
Staphylococcus aureus [11] = assay: Resistance development in methicillin-resistant Staphylococcus aureus 252 assessed as fold increase in resistance after 15 days serial passage upto 256 ug/ml; assay type: functional; details: dose <= 256 µg/ml; time 15 day
Escherichia coli [12] = assay: Ratio of MBC99.9 for Escherichia coli ATCC25922 to MIC for Escherichia coli ATCC25922; assay type: functional

Compound	IC50 [1] [µM]	ΔTm (Staphylococcus aureus [2]) [°C]	ΔTm (Homo sapiens) [°C]	MIC (Escherichia coli [3]) [µg/mL]	MIC (Shigella flexneri) [µg/mL]	MIC (Salmonella typhi) [µg/mL]	MIC (Staphylococcus aureus [4]) [µg/mL]	MIC (Staphylococcus aureus [5]) [µg/mL]	MIC (Staphylococcus aureus [6]) [µg/mL]	MIC (Staphylococcus aureus [7]) [µg/mL]	MBC (Staphylococcus aureus [8]) [µg/mL]	Ratio (Staphylococcus aureus [9])	fold change (FC) (Escherichia coli [10])	fold change (FC) (Staphylococcus aureus [11])	Ratio (Escherichia coli [12])
O=C(C[C@@H]1CCCCN1)Cn1cnc2cc(Cl)c(Cl)cc2c1=O	0.51	7.9	18.9	16 (≈ 45.2 µM)	16 (≈ 45.2 µM)	32 (≈ 90.3 µM)	4 (≈ 11.3 µM)	4 (≈ 11.3 µM)	8 (≈ 22.6 µM)	16 (≈ 45.2 µM)	64 (≈ 181 µM)	16			
O=C(C[C@@H]1CCCCN1)Cn1cnc2ccc(C(F)(F)F)cc2c1=O	> 100	1.2	9.9	64 (≈ 181 µM)	64 (≈ 181 µM)	64 (≈ 181 µM)	64 (≈ 181 µM)	64 (≈ 181 µM)	32 (≈ 90.6 µM)	64 (≈ 181 µM)					
O=C(O)c1cn(C2CC2)c2cc(N3CCNCC3)c(F)cc2c1=O [CIPROFLOXACIN]					2 (≈ 6.04 µM)								16		
CC1(C)S[C@@H]2[C@H](NC(=O)[C@H](N)c3ccccc3)C(=O)N2[C@H]1C(=O)O [AMPICILLIN]					2 (≈ 5.72 µM)	2 (≈ 5.72 µM)									
O=C(C[C@@H]1CCCCN1)Cn1cnc2cccnc2c1=O	> 100	0	6.9	> 64	> 64	> 64	> 64	> 64	> 64	> 64					
O=c1c2ccccc2ncn1CCC[C@@H]1CCCCN1	> 100	0	4.2	> 64	> 64	> 64	> 64	> 64	> 64	> 64					
O=C(C[C@@H]1CCCCN1)Cn1cnc2cc(F)ccc2c1=O	1.71	6.9	18.1	16 (≈ 52.7 µM)	8 (≈ 26.4 µM)	32 (≈ 105 µM)	32 (≈ 105 µM)	32 (≈ 105 µM)	32 (≈ 105 µM)	32 (≈ 105 µM)					
CC(C)(C)c1ccc2c(=O)n(CC(=O)C[C@@H]3CCCCN3)cnc2c1	> 100	0	3.9	> 64	> 64	> 64	> 64	> 64	> 64	> 64					
C[C@H]1COc2c(N3CCN(C)CC3)c(F)cc3c(=O)c(C(=O)O)cn1c23.C[C@H]1COc2c(N3CCN(C)CC3)c(F)cc3c(=O)c(C(=O)O)cn1c23.O [LEVOFLOXACIN]														64	
O=C(C[C@@H]1CCCCN1)Cn1cnc2ccc(F)cc2c1=O	8.2	6.3	17.9	16 (≈ 52.7 µM)	16 (≈ 52.7 µM)	32 (≈ 105 µM)	32 (≈ 105 µM)	32 (≈ 105 µM)	32 (≈ 105 µM)	32 (≈ 105 µM)					
O=C(C[C@@H]1CCCCN1)Cn1cnc2cc(C(F)(F)F)ccc2c1=O	1.28	3.4	16.9	> 64	> 64	> 64	> 64	> 64	> 64	> 64					
Cc1cc2ncn(CC(=O)C[C@@H]3CCCCN3)c(=O)c2cc1C	17.6	1.3	13.9	> 64	> 64	> 64	> 64	> 64	> 64	> 64					
COc1cc2ncn(CC(=O)C[C@@H]3CCCCN3)c(=O)c2cc1OC	> 100	0	4.2	> 64	> 64	> 64	> 64	> 64	> 64	> 64					
O=C(C[C@@H]1CCCCN1)Cn1cnc2cc(F)c(F)cc2c1=O	0.63	7.3	19.2	4 (≈ 12.4 µM)	4 (≈ 12.4 µM)	16 (≈ 49.8 µM)	16 (≈ 49.8 µM)	32 (≈ 99.6 µM)	16 (≈ 49.8 µM)	32 (≈ 99.6 µM)	128 (≈ 398 µM)	8			16
O=C(C[C@@H]1CCCCN1)Cn1cnc2nccnc2c1=O	> 100	0	4.9	> 64	> 64	> 64	> 64	> 64	> 64	> 64					
O=c1c2cc(Cl)c(Br)cc2ncn1CCC[C@@H]1CCCCN1	12.4	2.5	15.1	64 (≈ 166 µM)	64 (≈ 166 µM)	64 (≈ 166 µM)	64 (≈ 166 µM)	64 (≈ 166 µM)	32 (≈ 83.2 µM)	64 (≈ 166 µM)					
O=C(C[C@@H]1CCCCN1)Cn1cnc2cc3c(cc2c1=O)OCO3	36.3	2.1	15.9	> 64	> 64	> 64	> 64	> 64	> 64	> 64					
O=c1c2cc(Cl)c(Cl)cc2ncn1CCC[C@@H]1CCCCN1	6.8	2	12.4	> 64	> 64	> 64	> 64	> 64	> 64	> 64					
O=C(C[C@@H]1CCCCN1)Cn1cnc2cccc(Cl)c2c1=O	5.59	3	15.9	> 64	> 64	> 64	> 64	> 64	> 64	> 64					
O=C(C[C@@H]1CCCCN1)Cn1cnc2cc(Br)c(Cl)cc2c1=O	0.61	6.2	17.9	32 (≈ 80.3 µM)	16 (≈ 40.1 µM)	32 (≈ 80.3 µM)	16 (≈ 40.1 µM)	16 (≈ 40.1 µM)	16 (≈ 40.1 µM)	32 (≈ 80.3 µM)					
O=c1c2cc(Cl)c(Br)cc2ncn1CC(O)C[C@@H]1CCCCN1 (stereo not given in full)	> 100	0	11.9	> 64	> 64	> 64	> 64	> 64	> 64	> 64					
O=C(C[C@@H]1CCCCN1)Cn1cnc2ccccc2c1=O	18.3	1.3	15.7	64 (≈ 224 µM)	32 (≈ 112 µM)	64 (≈ 224 µM)	16 (≈ 56.1 µM)	32 (≈ 112 µM)	32 (≈ 112 µM)	32 (≈ 112 µM)					
O=C(C[C@@H]1CCCCN1)Cn1cnc2cc3ccccc3cc2c1=O	> 100	0	7.9	> 64	> 64	> 64	> 64	> 64	> 64	> 64					
